Experimental data as given in ChEMBL document CHEMBL4507287, “Data for DCP probe MRL-650” (2021).

Assays:
[1] = target: AP2-associated protein kinase 1 (Homo sapiens) (UniProt Q2M2I8); details: Compound concentration 1000.0 nM
[2] = test system: Tyrosine-protein kinase ABL1 (Homo sapiens), P00519 [E255K]; details: Compound concentration 1000.0 nM
[3] = target: Aurora kinase A (Homo sapiens) (UniProt O14965); details: Compound concentration 1000.0 nM
[4] = target: Aurora kinase B (Homo sapiens) (UniProt Q96GD4); details: Compound concentration 1000.0 nM
[5] = target: Cyclin-dependent kinase-like 1 (Homo sapiens) (UniProt Q00532); details: Compound concentration 1000.0 nM
Chain of Cyclin-dependent kinase-like 1 (Homo sapiens) (Q00532 whole entry): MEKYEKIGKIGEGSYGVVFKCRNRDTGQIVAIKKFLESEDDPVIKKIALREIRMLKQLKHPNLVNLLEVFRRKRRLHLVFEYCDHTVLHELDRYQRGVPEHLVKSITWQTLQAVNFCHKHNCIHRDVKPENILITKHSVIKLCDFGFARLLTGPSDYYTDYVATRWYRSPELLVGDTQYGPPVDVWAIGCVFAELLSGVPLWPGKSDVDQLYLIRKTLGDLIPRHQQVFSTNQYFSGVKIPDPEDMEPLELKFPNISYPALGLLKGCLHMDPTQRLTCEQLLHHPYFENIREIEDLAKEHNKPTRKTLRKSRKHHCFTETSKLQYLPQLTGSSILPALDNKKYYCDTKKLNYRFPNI

[6] = target: Cyclin-dependent kinase-like 3 (Homo sapiens) (UniProt Q8IVW4); details: Compound concentration 1000.0 nM
[7] = target: Dual specificity protein kinase CLK1 (Homo sapiens) (UniProt P49759); details: Compound concentration 1000.0 nM
[8] = target: Casein kinase II subunit alpha' (Homo sapiens) (UniProt P19784); details: Compound concentration 1000.0 nM
[9] = target: Serine/threonine-protein kinase DCLK2 (Homo sapiens) (UniProt Q8N568); details: Compound concentration 1000.0 nM
[10] = target: Mitogen-activated protein kinase kinase kinase 12 (Homo sapiens) (UniProt Q12852); details: Compound concentration 1000.0 nM
[11] = test system: Epidermal growth factor receptor (Homo sapiens), P00533 [G719C]; details: Compound concentration 1000.0 nM
[12] = target: Mitogen-activated protein kinase 1 (Homo sapiens) (UniProt P28482); details: Compound concentration 1000.0 nM
[13] = target: Mitogen-activated protein kinase 7 (Homo sapiens) (UniProt Q13164); details: Compound concentration 1000.0 nM
[14] = target: Tyrosine-protein kinase Fer (Homo sapiens) (UniProt P16591); details: Compound concentration 1000.0 nM
[15] = test system: Receptor-type tyrosine-protein kinase FLT3 (Homo sapiens), P36888 [UNDEFINED MUTATION]; details: Compound concentration 1000.0 nM
[16] = test system: Receptor-type tyrosine-protein kinase FLT3 (Homo sapiens), P36888 [R834Q]; details: Compound concentration 1000.0 nM
[17] = target: Vascular endothelial growth factor receptor 3 (Homo sapiens) (UniProt P35916); details: Compound concentration 1000.0 nM
[18] = target: Mast/stem cell growth factor receptor Kit (Homo sapiens) (UniProt P10721); details: Compound concentration 1000.0 nM
[19] = test system: Mast/stem cell growth factor receptor Kit (Homo sapiens), P10721 [L576P]; details: Compound concentration 1000.0 nM
[20] = test system: Mast/stem cell growth factor receptor Kit (Homo sapiens), P10721 [V559D,T670I]; details: Compound concentration 1000.0 nM
[21] = target: Leucine-rich repeat serine/threonine-protein kinase 2 (Homo sapiens) (UniProt Q5S007); details: Compound concentration 1000.0 nM
[22] = target: Dual specificity mitogen-activated protein kinase kinase 3 (Homo sapiens) (UniProt P46734); details: Compound concentration 1000.0 nM
[23] = target: Maternal embryonic leucine zipper kinase (Homo sapiens) (UniProt Q14680); details: Compound concentration 1000.0 nM
[24] = target: Misshapen-like kinase 1 (Homo sapiens) (UniProt Q8N4C8); details: Compound concentration 1000.0 nM
[25] = target: Muscle, skeletal receptor tyrosine-protein kinase (Homo sapiens) (UniProt O15146); details: Compound concentration 1000.0 nM
[26] = target: Serine/threonine-protein kinase 38 (Homo sapiens) (UniProt Q15208); details: Compound concentration 1000.0 nM
[27] = target: Serine/threonine-protein kinase Nek10 (Homo sapiens) (UniProt Q6ZWH5); details: Compound concentration 1000.0 nM
Chain of Serine/threonine-protein kinase Nek10 (Homo sapiens) (Q6ZWH5 whole entry): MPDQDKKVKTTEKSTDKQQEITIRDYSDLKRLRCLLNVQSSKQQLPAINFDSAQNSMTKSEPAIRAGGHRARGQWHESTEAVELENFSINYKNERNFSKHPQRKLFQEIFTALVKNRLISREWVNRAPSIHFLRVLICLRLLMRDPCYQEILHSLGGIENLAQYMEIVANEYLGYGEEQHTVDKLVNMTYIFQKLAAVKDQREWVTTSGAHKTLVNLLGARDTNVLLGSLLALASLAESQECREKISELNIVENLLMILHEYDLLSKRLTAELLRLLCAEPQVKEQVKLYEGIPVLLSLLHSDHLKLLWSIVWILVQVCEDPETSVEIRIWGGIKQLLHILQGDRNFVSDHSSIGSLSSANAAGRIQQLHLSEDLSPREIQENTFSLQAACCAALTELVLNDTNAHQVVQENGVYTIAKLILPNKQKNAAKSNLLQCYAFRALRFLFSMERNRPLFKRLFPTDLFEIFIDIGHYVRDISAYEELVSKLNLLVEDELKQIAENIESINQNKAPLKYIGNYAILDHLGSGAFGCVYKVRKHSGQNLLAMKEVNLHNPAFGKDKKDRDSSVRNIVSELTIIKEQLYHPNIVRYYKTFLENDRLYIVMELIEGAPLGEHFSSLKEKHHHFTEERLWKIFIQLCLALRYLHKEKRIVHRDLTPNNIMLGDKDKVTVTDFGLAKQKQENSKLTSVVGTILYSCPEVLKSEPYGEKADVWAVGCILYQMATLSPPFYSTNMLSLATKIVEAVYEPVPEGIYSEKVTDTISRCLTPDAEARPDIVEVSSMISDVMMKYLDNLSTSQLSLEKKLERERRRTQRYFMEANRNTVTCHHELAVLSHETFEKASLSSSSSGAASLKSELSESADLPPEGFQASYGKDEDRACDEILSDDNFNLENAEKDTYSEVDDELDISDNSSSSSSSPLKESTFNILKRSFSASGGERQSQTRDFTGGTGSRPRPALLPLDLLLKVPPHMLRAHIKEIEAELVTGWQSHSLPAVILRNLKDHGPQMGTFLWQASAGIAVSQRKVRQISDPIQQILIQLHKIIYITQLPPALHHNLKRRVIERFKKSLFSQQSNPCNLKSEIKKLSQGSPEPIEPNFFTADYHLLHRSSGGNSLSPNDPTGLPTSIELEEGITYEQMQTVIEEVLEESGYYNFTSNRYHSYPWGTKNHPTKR

[28] = target: Serine/threonine-protein kinase Nek9 (Homo sapiens) (UniProt Q8TD19); details: Compound concentration 1000.0 nM
[29] = target: Mitogen-activated protein kinase 12 (Homo sapiens) (UniProt P53778); details: Compound concentration 1000.0 nM
[30] = test system: Phosphatidylinositol 4,5-bisphosphate 3-kinase catalytic subunit alpha isoform (Homo sapiens), P42336 [C420R]; details: Compound concentration 1000.0 nM
[31] = test system: Phosphatidylinositol 4,5-bisphosphate 3-kinase catalytic subunit alpha isoform (Homo sapiens), P42336 [E545K]; details: Compound concentration 1000.0 nM
[32] = target: cAMP-dependent protein kinase catalytic subunit alpha (Homo sapiens) (UniProt P17612); details: Compound concentration 1000.0 nM
[33] = target: Membrane-associated tyrosine- and threonine-specific cdc2-inhibitory kinase (Homo sapiens) (UniProt Q99640); details: Compound concentration 1000.0 nM
[34] = target: Rho-associated protein kinase 1 (Homo sapiens) (UniProt Q13464); details: Compound concentration 1000.0 nM
[35] = target: Ribosomal protein S6 kinase alpha-4 (Homo sapiens) (UniProt O75676); details: Compound concentration 1000.0 nM
[36] = target: Serine/threonine-protein kinase Sgk3 (Homo sapiens) (UniProt Q96BR1); details: Compound concentration 1000.0 nM
[37] = target: Angiopoietin-1 receptor (Homo sapiens) (UniProt Q02763); details: Compound concentration 1000.0 nM
[38] = target: Serine/threonine-protein kinase ULK2 (Homo sapiens) (UniProt Q8IYT8); details: Compound concentration 1000.0 nM
Chain of Serine/threonine-protein kinase ULK2 (Homo sapiens) (Q8IYT8 whole entry): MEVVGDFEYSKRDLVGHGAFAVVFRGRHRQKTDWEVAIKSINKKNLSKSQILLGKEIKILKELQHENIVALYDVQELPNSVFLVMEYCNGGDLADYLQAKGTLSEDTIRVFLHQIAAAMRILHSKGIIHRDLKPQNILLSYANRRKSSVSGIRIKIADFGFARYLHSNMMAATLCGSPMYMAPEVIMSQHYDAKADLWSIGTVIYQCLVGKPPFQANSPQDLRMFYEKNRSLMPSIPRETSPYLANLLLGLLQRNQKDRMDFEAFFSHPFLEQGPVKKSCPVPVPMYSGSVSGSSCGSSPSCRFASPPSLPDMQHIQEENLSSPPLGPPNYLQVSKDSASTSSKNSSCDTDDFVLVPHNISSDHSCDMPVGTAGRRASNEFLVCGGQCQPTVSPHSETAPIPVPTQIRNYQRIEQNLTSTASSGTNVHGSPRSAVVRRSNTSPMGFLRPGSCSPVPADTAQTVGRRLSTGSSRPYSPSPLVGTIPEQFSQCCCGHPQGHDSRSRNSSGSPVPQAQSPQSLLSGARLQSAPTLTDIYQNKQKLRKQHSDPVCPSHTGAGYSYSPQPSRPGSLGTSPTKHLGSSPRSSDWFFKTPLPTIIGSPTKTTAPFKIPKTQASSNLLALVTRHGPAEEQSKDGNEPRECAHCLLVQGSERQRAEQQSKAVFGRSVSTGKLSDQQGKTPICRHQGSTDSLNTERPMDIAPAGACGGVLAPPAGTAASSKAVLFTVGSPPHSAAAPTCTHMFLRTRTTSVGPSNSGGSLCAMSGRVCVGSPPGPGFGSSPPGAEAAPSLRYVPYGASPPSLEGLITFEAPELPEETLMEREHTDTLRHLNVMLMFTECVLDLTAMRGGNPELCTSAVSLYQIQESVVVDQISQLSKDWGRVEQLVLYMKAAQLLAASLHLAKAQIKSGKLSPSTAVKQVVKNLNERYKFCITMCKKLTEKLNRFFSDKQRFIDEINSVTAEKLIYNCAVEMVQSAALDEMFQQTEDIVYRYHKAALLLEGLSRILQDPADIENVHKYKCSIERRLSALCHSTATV

[39] = target: Mitogen-activated protein kinase kinase kinase 19 (Homo sapiens) (UniProt Q56UN5); details: Compound concentration 1000.0 nM
Chain of Mitogen-activated protein kinase kinase kinase 19 (Homo sapiens) (Q56UN5 whole entry): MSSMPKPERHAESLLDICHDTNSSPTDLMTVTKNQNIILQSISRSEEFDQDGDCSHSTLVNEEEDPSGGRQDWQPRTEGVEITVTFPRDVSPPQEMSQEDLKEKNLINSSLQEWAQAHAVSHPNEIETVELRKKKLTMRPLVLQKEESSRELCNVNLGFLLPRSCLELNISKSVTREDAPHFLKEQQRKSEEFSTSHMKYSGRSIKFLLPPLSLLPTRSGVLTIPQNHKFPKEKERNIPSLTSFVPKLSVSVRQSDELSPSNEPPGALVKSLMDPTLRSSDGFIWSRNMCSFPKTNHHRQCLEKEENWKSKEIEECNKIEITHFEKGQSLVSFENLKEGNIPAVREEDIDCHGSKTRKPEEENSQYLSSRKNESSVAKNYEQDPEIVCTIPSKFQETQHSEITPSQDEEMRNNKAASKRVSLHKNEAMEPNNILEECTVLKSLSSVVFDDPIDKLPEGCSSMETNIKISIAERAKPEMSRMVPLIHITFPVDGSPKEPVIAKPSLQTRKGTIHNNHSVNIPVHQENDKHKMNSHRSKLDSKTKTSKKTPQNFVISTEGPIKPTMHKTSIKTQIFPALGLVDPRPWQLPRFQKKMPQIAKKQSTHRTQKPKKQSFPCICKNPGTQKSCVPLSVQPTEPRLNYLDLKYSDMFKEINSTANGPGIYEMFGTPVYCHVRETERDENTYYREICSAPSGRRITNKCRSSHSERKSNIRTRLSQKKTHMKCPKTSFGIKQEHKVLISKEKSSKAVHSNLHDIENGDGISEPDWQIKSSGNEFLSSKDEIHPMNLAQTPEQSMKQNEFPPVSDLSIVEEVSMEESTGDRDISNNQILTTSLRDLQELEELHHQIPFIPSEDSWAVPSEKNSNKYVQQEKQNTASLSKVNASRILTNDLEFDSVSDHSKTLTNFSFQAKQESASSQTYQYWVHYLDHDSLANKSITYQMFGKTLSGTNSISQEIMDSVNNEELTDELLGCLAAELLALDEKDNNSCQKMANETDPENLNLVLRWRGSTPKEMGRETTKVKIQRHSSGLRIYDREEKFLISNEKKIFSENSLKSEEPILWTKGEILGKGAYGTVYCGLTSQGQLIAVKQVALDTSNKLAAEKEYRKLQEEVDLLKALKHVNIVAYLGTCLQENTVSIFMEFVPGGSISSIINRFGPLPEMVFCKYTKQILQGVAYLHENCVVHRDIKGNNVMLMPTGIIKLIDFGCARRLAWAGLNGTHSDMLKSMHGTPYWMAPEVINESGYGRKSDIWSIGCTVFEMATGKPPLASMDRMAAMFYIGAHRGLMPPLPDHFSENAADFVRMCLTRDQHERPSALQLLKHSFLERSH

[40] = target: 5-hydroxytryptamine receptor 2B (Homo sapiens) (UniProt P41595); details: Compound concentration 10.0 uM
[41] = target: Alpha-1B adrenergic receptor (Homo sapiens) (UniProt P35368); details: Compound concentration 10.0 uM
[42] = target: Beta-2 adrenergic receptor (Homo sapiens) (UniProt P07550); details: Compound concentration 10.0 uM
[43] = target: GABA-A receptor; anion channel (Rattus norvegicus) (UniProt O09028+P15431+P18506+P18508+P19969+P20236+P23574+P23576+P28471+P28473+P30191+P62813+P63079+P63138+Q91ZM7+Q9ES14); details: Compound concentration 10.0 uM

Chain of Tyrosine-protein kinase ABL1 (Homo sapiens), P00519 [E255K] (P00519 whole entry E255K): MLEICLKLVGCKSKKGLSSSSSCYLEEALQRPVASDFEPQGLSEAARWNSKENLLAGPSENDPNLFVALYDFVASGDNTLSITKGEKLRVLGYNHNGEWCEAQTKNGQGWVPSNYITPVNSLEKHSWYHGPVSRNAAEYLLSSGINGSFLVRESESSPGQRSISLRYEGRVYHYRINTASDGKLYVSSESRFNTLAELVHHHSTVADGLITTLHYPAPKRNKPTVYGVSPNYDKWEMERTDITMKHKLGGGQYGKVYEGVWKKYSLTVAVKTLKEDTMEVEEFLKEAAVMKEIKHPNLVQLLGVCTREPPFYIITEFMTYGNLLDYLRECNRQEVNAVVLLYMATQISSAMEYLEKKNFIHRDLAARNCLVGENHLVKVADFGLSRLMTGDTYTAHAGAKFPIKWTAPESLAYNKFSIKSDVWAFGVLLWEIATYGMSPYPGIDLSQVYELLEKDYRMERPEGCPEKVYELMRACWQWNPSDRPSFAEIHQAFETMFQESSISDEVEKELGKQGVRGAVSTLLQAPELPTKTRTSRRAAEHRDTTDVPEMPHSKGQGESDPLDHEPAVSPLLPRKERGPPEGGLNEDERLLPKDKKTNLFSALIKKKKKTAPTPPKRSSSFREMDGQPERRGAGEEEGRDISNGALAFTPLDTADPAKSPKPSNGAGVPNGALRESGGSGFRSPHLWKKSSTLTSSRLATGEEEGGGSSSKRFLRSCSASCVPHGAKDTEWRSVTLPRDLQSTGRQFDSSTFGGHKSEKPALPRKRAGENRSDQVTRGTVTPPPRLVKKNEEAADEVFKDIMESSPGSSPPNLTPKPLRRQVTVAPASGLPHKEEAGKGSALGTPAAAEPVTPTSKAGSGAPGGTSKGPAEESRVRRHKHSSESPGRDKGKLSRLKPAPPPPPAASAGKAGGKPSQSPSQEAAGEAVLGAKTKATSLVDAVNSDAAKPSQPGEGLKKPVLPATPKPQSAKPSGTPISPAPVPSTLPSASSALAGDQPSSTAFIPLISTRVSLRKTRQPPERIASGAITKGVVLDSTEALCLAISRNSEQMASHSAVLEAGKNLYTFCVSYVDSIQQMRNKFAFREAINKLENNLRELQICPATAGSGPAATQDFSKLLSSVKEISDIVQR

CC(=O)Nc1c(C(C)=O)c(=O)n(C)c2nc(-c3ccc(Cl)cc3Cl)c(-c3ccc(Cl)cc3)cc12 [NAPHTHYRIDINONE]
residual activity [1]: 100%
residual activity [2]: 94%
residual activity [3]: 100%
residual activity [4]: 92%
residual activity [5]: 100%
residual activity [6]: 100%
residual activity [7]: 100%
residual activity [8]: 100%
residual activity [9]: 100%
residual activity [10]: 100%
residual activity [11]: 100%
residual activity [12]: 100%
residual activity [13]: 100%
residual activity [14]: 88%
residual activity [15]: 100%
residual activity [16]: 100%
residual activity [17]: 100%
residual activity [18]: 100%
residual activity [19]: 100%
residual activity [20]: 100%
residual activity [21]: 100%
residual activity [22]: 86%
residual activity [23]: 100%
residual activity [24]: 100%
residual activity [25]: 100%
residual activity [26]: 93%
residual activity [27]: 100%
residual activity [28]: 100%
residual activity [29]: 100%
residual activity [30]: 88%
residual activity [31]: 79%
residual activity [32]: 100%
residual activity [33]: 100%
residual activity [34]: 100%
residual activity [35]: 100%
residual activity [36]: 100%
residual activity [37]: 91%
residual activity [38]: 100%
residual activity [39]: 100%
inhibition [40]: 1.6%
inhibition [41]: 17.1%
inhibition [42]: 12.6%
inhibition [43]: 30.2%

CC(=O)c1c(NS(C)(=O)=O)c2cc(-c3ccc(Cl)cc3)c(-c3ccc(Cl)cc3Cl)nc2n(C)c1=O [MRL-CB1-NC]
residual activity [1]: 100%
residual activity [2]: 100%
residual activity [3]: 87%
residual activity [4]: 100%
residual activity [5]: 91%
residual activity [6]: 100%
residual activity [7]: 100%
residual activity [8]: 100%
residual activity [9]: 96%
residual activity [10]: 100%
residual activity [11]: 100%
residual activity [12]: 100%
residual activity [13]: 92%
residual activity [14]: 100%
residual activity [15]: 94%
residual activity [16]: 100%
residual activity [17]: 100%
residual activity [18]: 100%
residual activity [19]: 99%
residual activity [20]: 100%
residual activity [21]: 65%
residual activity [22]: 96%
residual activity [23]: 100%
residual activity [24]: 100%
residual activity [25]: 99%
residual activity [26]: 77%
residual activity [27]: 99%
residual activity [28]: 100%
residual activity [29]: 100%
residual activity [30]: 93%
residual activity [31]: 91%
residual activity [32]: 100%
residual activity [33]: 99%
residual activity [34]: 85%
residual activity [35]: 87%
residual activity [36]: 79%
residual activity [37]: 90%
residual activity [38]: 97%
residual activity [39]: 85%
inhibition [40]: -0.601%
inhibition [41]: 47.2%
inhibition [42]: 5.51%
inhibition [43]: 60.9%
